Measurements taken from patent US20180251431A1 (VERTEX PHARMACEUTICALS INCORPORATED, priority 2016, published 2018).

Tested on: ABCD1 KO mice
Test: Reduction of C26:0 LPC, SC-VLCFA and acyl carnitine levels in ABCD1 KO brains
Assay type: in vivo, mouse
Settings: for reduction of brain C26:0 acyl carnitine levels: after 2 months of treatment
Experimental: To examine the effect of Compound 87 on VLCFA levels in the CNS, female ABCD1 KO mice were treated with vehicle, 1 or 10 mg/kg PO QD for 2 weeks (14 days; n=5 per group), 1 month (28 days; n=5 per group), 2 months (56 days; n=6 per group), or 3 months (84 days; n=6 per group). The brain samples used in this study were from the same mice used in the long term dosing study in ABCD1 knock-out mice and WT mice (see Example 2.3). Brain tissue samples were collected after 2, 4, 8, or 12 weeks of dosing with vehicle or Compound 87. Brain samples were frozen at −70° C. and were analyzed for VLCFA (LPC, SC-VLCFA, acyl-carnitines) via liquid chromatography-mass spectrometry (LCMS) as described below. The vehicle used was 2% TPGS and Compound 87 doses were prepared in 2% TPGS.
Levels of VLCFA, including straight chain very long chain fatty acids (SC-VLCFA), acyl carnitines, and lysophosphatidylcholines (LPC), in the brain were examined. SC-VLCFA were expected to be rapidly incorporated into other forms and acyl carnitines were expected to be rapidly degraded, contributing to a short expected half-life for these forms. LPC was expected to integrate into membranes, contributing to a longer expected half-life.
Brain Sample Preparation:
(i) 3 volumes of MeOH was add to each sample; (ii) homogenized tissue samples with FastPrep (FP120) at 4.5 intensity for 25 seconds; and (iii) aliquoted tissue lysates.
LPC and Acylcarnitine Extraction with CHCl3/MeOH Liquid-Liquid Extraction:
Added 1 mL MeOH, then added 1 mL […] to the brain tissue lysates; incubated 30 minutes at room temperature; added 1 mL CHCl3 and 0.75 mL H2O; incubated 30 minutes; centrifuged max for 10 minutes; transferred lower layer to new vials; organic phase was dried using Turbo-Vac. The resulting residue was re-constituted with MeOH.
3-Step Chemical Derivatization of SC-VLCFA Using Dimethylaminoethanol (VLCFA-DMAE):
(i) added oxalyl chloride (2 mol/l oxalyl chloride in CH2Cl2, 200 ul) to the dried mixture, incubated at 65° C. for 5 minutes; (ii) added 60 uL dimethylaminoethanol, incubated at 25° C. for 5 minutes and dried down; (iii) added 100 uL methyl iodide, incubated briefly and dried down. The resulting residue was re-constituted with ethanol (EtOH).
LCMSMS Detection of VLCFA (e.g., Spingomyelin (SM) and LPC and Derivatized VLCFA (FA-DMAE)):
LPC Detection: • Column: Discovery C18, 2.1×20 mm • Phase A: 50% MeOH/5 mM AF; Phase B: 2-propanol • MS: 4000 Qtrap operated in ESI MRM positive mode
FA-DMAE Detection: • Column: Synergi Polar RP, 2×150 mm • Phase A: H2O/0.1% FA; Phase B: ACN/0.1% FA • MS: 4000 Qtrap operated in ESI MRM positive mode

[1] = 1 mg/kg or 10 mg/kg PO QD, after 2 weeks of dosing

O=C(Nc1ccn(-c2ccnc(F)c2)n1)C1(c2ccccc2F)CC1 [Compound 87, 1-(2-fluorophenyl)-N-[1-(2-fluoro-4-pyridyl)pyrazol-3-yl]cyclopropanecarboxamide]
reduction in brain C26:0 LPC (1 mg/kg PO QD, 2 months): ~30%
reduction of brain C26:0 SC-VLCFA levels (1 mg/kg PO QD, 2 months): about 30%
reduction in brain C26:0 LPC (1 mg/kg PO QD, 3 months): ~30%
reduction of brain C26:0 SC-VLCFA levels (1 mg/kg PO QD, 3 months): about 50%
reduction of brain C26:0 acyl carnitine levels (1 mg/kg PO QD): ~50%
brain C24:0 LPC levels (normalized by C16:0 LPC levels) (1 mg/kg or 10 mg/kg PO QD, 3 months): significant reduction
brain LPC levels [1]: no changes
brain SC-VLCFA levels [1]: no changes
reduction in brain C26:0 LPC (10 mg/kg PO QD, 2 months): ~40%
reduction of brain C26:0 SC-VLCFA levels (10 mg/kg PO QD, 2 months): about 55%
reduction of brain C26:0 acyl carnitine levels (10 mg/kg PO QD): ~70%
brain C24:0 SC-VLCFA level (10 mg/kg PO QD, after 3 months of dosing): significant reduction
